The numbers were not newly measured in patent US7935348B2, “Combination therapy for the treatment of Alzheimer's disease” (Affiris Forschungs-und Entwicklungs GmbH, priority 2004, dated 2011), which cites them from elsewhere.

Entries after “also recorded” stand apart in the source; their conditions may differ.

The test system of one series is Aβ. Conditions: for Aβ amount in the brain: peripheral treatment.
Chain of Aβ (P05067 672-711 limits assumed): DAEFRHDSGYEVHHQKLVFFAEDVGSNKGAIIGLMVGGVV

With GM1, in the series with Aβ, the “Aβ amount in the brain” value is recorded as “reduction of the Aβ amount in the brain”.
In the case of gelsolin, the “Aβ content in the plasma” value in the series on Aβ (peripheral administration) is recorded as “not reduced; also recorded: increased Aβ content in the plasma”. The “Aβ amount in the brain” value in the series with Aβ was “reduction of the Aβ amount in the brain”.
For the substance “aggregated Aβ42: aggregated 42-amino acid form of amyloid-β peptide used as a "normal", not mimotope-based vaccine”, the AD-type neuropathologies result in the series with PDAPP transgenic mouse (immunization of young animals, before onset (6 weeks)) was “prevented the development of plaque formation, neuritic dystrophy and astrogliosis”. Also, the AD-like neuropathologies entry with PDAPP transgenic mouse (treatment of older animals (11 months)) is reported as “markedly reduced AD-like neuropathologies”.
